Measurements as given in patent publication US8802597B2, “Herbicidal pyrimidines” (E I du Pont de Nemours and Company, priority 2003, dated 2014).

Assays:
Experiment in all cases: Test G pre/postemergence
Assay type in all cases: in vivo
[1] = tested on: common ragweed (Ambrosia elatior)
Method in brief: (§1)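 Pre- and postemergence greenhouse test; compound in non-phytotoxic solvent/surfactant mix. Post timing: 2–18 cm plants, 1- to 4-leaf. Visual rating vs controls at 12–21 d, 0 (no effect) to 100 (complete control).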

[2] = tested on: Italian ryegrass (Lolium multiflorum)
Method in brief: as §1

[3] = tested on: quackgrass (Elytrigia repens)
Method in brief: as §1

[4] = tested on: common mallow (Malva sylvestris)
Method in brief: as §1

[5] = tested on: tropical spiderwort (Commelina benghalensis)
Method in brief: as §1

[6] = tested on: downy bromegrass (Bromus tectorum)
Method in brief: as §1

[7] = tested on: bermudagrass (Cynodon dactylon)
Method in brief: as §1

[8] = tested on: guineagrass (Panicum maximum)
Method in brief: as §1

[9] = tested on: goosegrass (Eleusine indica)
Method in brief: as §1

[10] = tested on: common chickweed (Stellaria media)
Method in brief: as §1

[11] = tested on: Surinam grass (Brachiaria decumbens)
Method in brief: as §1

[12] = tested on: prickly sida (Sida spinosa)
Method in brief: as §1

[13] = tested on: johnsongrass (Sorghum halepense); details: Preemergence, scale 0-100
Method in brief: as §1

[14] = tested on: black mustard (Brassica nigra)
Method in brief: as §1

[15] = Postemergence, 250 g ai/ha, scale 0 to 100
[16] = Postemergence, 16 g ai/ha, scale 0 to 100
[17] = Postemergence, 31 g ai/ha, scale 0 to 100
[18] = Postemergence, 62 g ai/ha, scale 0 to 100
[19] = Postemergence, 125 g ai/ha, scale 0 to 100
[20] = Preemergence, 16 g ai/ha, scale 0-100
[21] = Preemergence, 31 g ai/ha, scale 0-100
[22] = Preemergence, 62 g ai/ha, scale 0-100
[23] = Preemergence, 125 g ai/ha, scale 0-100
[24] = Preemergence, 250 g ai/ha, scale 0-100

`Nc1nc(C2CC2)nc(C(=O)OCc2ccccc2)c1Br` [Compound 22, phenylmethyl 6-amino-5-bromo-2-cyclopropyl-4-pyrimidinecarboxylate] was tested, and the “Plant response rating, Ragweed” value [1, 15] was 100, the “Plant response rating, Ragweed” value [1, 16] was 65 and the “Plant response rating, Ragweed” value [1, 17] was 85. For the same molecule, the “Plant response rating, Ragweed” value [1, 18] was 98, the “Plant response rating, Ragweed” value [1, 19] was 98 and the “Plant response rating, Ragweed” value [1, 20] was 65. For the same molecule, the “Plant response rating, Ragweed” value [1, 21] was 75, the “Plant response rating, Ragweed” value [1, 22] was 90 and the “Plant response rating, Ragweed” value [1, 23] was 95. For the same molecule, the “Plant response rating, Ragweed” value [1, 24] was 100, the “Plant response rating, Ryegrass, Italian” value [2, 15] was 85 and the “Plant response rating, Ryegrass, Italian” value [2, 16] was 0. The “Plant response rating, Ryegrass, Italian” value [2, 17] was 5, the “Plant response rating, Ryegrass, Italian” value [2, 18] was 15 and the “Plant response rating, Ryegrass, Italian” value [2, 19] was 40. For the same molecule, the “Plant response rating, Ryegrass, Italian” value [2, 20] was 0, the “Plant response rating, Ryegrass, Italian” value [2, 21] was 0 and the “Plant response rating, Ryegrass, Italian” value [2, 22] was 0. The “Plant response rating, Ryegrass, Italian” value [2, 23] was 0, the “Plant response rating, Ryegrass, Italian” value [2, 24] was 50 and the “Plant response rating, Quackgrass” value [3, 15] was 85. For the same molecule, the “Plant response rating, Quackgrass” value [3, 16] was 15, the “Plant response rating, Quackgrass” value [3, 17] was 40 and the “Plant response rating, Quackgrass” value [3, 18] was 65. For the same molecule, the “Plant response rating, Quackgrass” value [3, 19] was 75, the “Plant response rating, Quackgrass” value [3, 20] was 0 and the “Plant response rating, Quackgrass” value [3, 21] was 0. The “Plant response rating, Quackgrass” value [3, 22] was 20, the “Plant response rating, Quackgrass” value [3, 23] was 20 and the “Plant response rating, Quackgrass” value [3, 24] was 30. The “Plant response rating, Mallow” value [4, 15] was 95, the “Plant response rating, Mallow” value [4, 16] was 40 and the “Plant response rating, Mallow” value [4, 17] was 60. The “Plant response rating, Mallow” value [4, 19] was 85, the “Plant response rating, Mallow” value [4, 20] was 50 and the “Plant response rating, Mallow” value [4, 21] was 50. For the same molecule, the “Plant response rating, Mallow” value [4, 22] was 75, the “Plant response rating, Mallow” value [4, 23] was 80 and the “Plant response rating, Mallow” value [4, 24] was 80. The “Plant response rating, Spiderwort” value [5, 15] was 98, the “Plant response rating, Spiderwort” value [5, 16] was 15 and the “Plant response rating, Spiderwort” value [5, 17] was 40. The “Plant response rating, Spiderwort” value [5, 18] was 85, the “Plant response rating, Spiderwort” value [5, 19] was 95 and the “Plant response rating, Spiderwort” value [5, 20] was 0. The “Plant response rating, Spiderwort” value [5, 21] was 50, the “Plant response rating, Spiderwort” value [5, 22] was 95 and the “Plant response rating, Spiderwort” value [5, 23] was 100. For the same molecule, the “Plant response rating, Spiderwort” value [5, 24] was 100, the “Plant response rating, Bromegrass, Downy” value [6, 15] was 95 and the “Plant response rating, Bromegrass, Downy” value [6, 16] was 15. For the same molecule, the “Plant response rating, Bromegrass, Downy” value [6, 17] was 65, the “Plant response rating, Bromegrass, Downy” value [6, 18] was 85 and the “Plant response rating, Bromegrass, Downy” value [6, 19] was 95. The “Plant response rating, Bromegrass, Downy” value [6, 20] was 0, the “Plant response rating, Bromegrass, Downy” value [6, 21] was 0 and the “Plant response rating, Bromegrass, Downy” value [6, 22] was 0. For the same molecule, the “Plant response rating, Bromegrass, Downy” value [6, 23] was 20, the “Plant response rating, Bromegrass, Downy” value [6, 24] was 75 and the “Plant response rating, Bermudagrass” value [7, 15] was 65. For the same molecule, the “Plant response rating, Bermudagrass” value [7, 16] was 15, the “Plant response rating, Bermudagrass” value [7, 17] was 35 and the “Plant response rating, Bermudagrass” value [7, 18] was 35. The “Plant response rating, Bermudagrass” value [7, 19] was 40, the “Plant response rating, Bermudagrass” value [7, 20] was 0 and the “Plant response rating, Bermudagrass” value [7, 21] was 0. For the same molecule, the “Plant response rating, Bermudagrass” value [7, 22] was 0, the “Plant response rating, Bermudagrass” value [7, 23] was 0 and the “Plant response rating, Bermudagrass” value [7, 24] was 30. For the same molecule, the “Plant response rating, Guineagrass” value [8, 15] was 100, the “Plant response rating, Guineagrass” value [8, 16] was 5 and the “Plant response rating, Guineagrass” value [8, 17] was 55. The “Plant response rating, Guineagrass” value [8, 18] was 65, the “Plant response rating, Guineagrass” value [8, 19] was 95 and the “Plant response rating, Guineagrass” value [8, 20] was 0. The “Plant response rating, Guineagrass” value [8, 21] was 35, the “Plant response rating, Guineagrass” value [8, 22] was 75 and the “Plant response rating, Guineagrass” value [8, 23] was 90. The “Plant response rating, Guineagrass” value [8, 24] was 95, the “Plant response rating, Goosegrass” value [9, 15] was 50 and the “Plant response rating, Goosegrass” value [9, 16] was 5. For the same molecule, the “Plant response rating, Goosegrass” value [9, 17] was 15, the “Plant response rating, Goosegrass” value [9, 18] was 25 and the “Plant response rating, Goosegrass” value [9, 19] was 35. For the same molecule, the “Plant response rating, Goosegrass” value [9, 20] was 0, the “Plant response rating, Goosegrass” value [9, 21] was 0 and the “Plant response rating, Goosegrass” value [9, 22] was 0. For the same molecule, the “Plant response rating, Goosegrass” value [9, 23] was 0, the “Plant response rating, Goosegrass” value [9, 24] was 0 and the “Plant response rating, Chickweed” value [10, 15] was 95. The “Plant response rating, Chickweed” value [10, 17] was 50, the “Plant response rating, Chickweed” value [10, 18] was 50 and the “Plant response rating, Chickweed” value [10, 19] was 85. For the same molecule, the “Plant response rating, Chickweed” value [10, 20] was 0, the “Plant response rating, Chickweed” value [10, 21] was 50 and the “Plant response rating, Chickweed” value [10, 23] was 90. The “Plant response rating, Chickweed” value [10, 24] was 100, the “Plant response rating, Surinam Grass” value [11, 15] was 95 and the “Plant response rating, Surinam Grass” value [11, 16] was 0. For the same molecule, the “Plant response rating, Surinam Grass” value [11, 17] was 15, the “Plant response rating, Surinam Grass” value [11, 18] was 35 and the “Plant response rating, Surinam Grass” value [11, 19] was 65. The “Plant response rating, Surinam Grass” value [11, 20] was 0, the “Plant response rating, Surinam Grass” value [11, 21] was 0 and the “Plant response rating, Surinam Grass” value [11, 22] was 0. The “Plant response rating, Surinam Grass” value [11, 23] was 35, the “Plant response rating, Surinam Grass” value [11, 24] was 90 and the “Plant response rating, Prickly Sida” value [12, 15] was 95. For the same molecule, the “Plant response rating, Prickly Sida” value [12, 16] was 75, the “Plant response rating, Prickly Sida” value [12, 17] was 85 and the “Plant response rating, Prickly Sida” value [12, 18] was 90. The “Plant response rating, Prickly Sida” value [12, 19] was 95, the “Plant response rating, Prickly Sida” value [12, 20] was 50 and the “Plant response rating, Prickly Sida” value [12, 21] was 50. For the same molecule, the “Plant response rating, Prickly Sida” value [12, 22] was 65, the “Plant response rating, Prickly Sida” value [12, 23] was 80 and the “Plant response rating, Prickly Sida” value [12, 24] was 95. For the same molecule, the “Plant response rating, Johnsongrass” value ([13]; 16 g ai/ha) was 0, the “Plant response rating, Johnsongrass” value ([13]; 31 g ai/ha) was 0 and the “Plant response rating, Johnsongrass” value ([13]; 62 g ai/ha) was 20. For the same molecule, the “Plant response rating, Johnsongrass” value ([13]; 125 g ai/ha) was 50, the “Plant response rating, Johnsongrass” value ([13]; 250 g ai/ha) was 80 and the “Plant response rating, Black Mustard” value [14, 15] was 95. The “Plant response rating, Black Mustard” value [14, 16] was 50, the “Plant response rating, Black Mustard” value [14, 17] was 75 and the “Plant response rating, Black Mustard” value [14, 18] was 75. The “Plant response rating, Black Mustard” value [14, 19] was 95, the “Plant response rating, Black Mustard” value [14, 20] was 30 and the “Plant response rating, Black Mustard” value [14, 21] was 35. The “Plant response rating, Black Mustard” value [14, 22] was 60, the “Plant response rating, Black Mustard” value [14, 23] was 65 and the “Plant response rating, Black Mustard” value [14, 24] was 75.
